Measured values from ChEMBL document CHEMBL4507265 (2021).

How the values were obtained:
[1] = test system: Tyrosine-protein kinase ABL1 (Homo sapiens), P00519 [E255K]; settings: Compound concentration 1000.0 nM
[2] = test system: Tyrosine-protein kinase ABL1 (Homo sapiens), P00519 [F317L]; settings: Compound concentration 1000.0 nM
[3] = test system: Tyrosine-protein kinase ABL1 (Homo sapiens), P00519 [F317L]; settings: Compound concentration 1000.0 nM; remark: listed apart in the source
[4] = test system: Tyrosine-protein kinase ABL1 (Homo sapiens), P00519 [H396P]; settings: Compound concentration 1000.0 nM
[5] = test system: Tyrosine-protein kinase ABL1 (Homo sapiens), P00519 [H396P]; settings: Compound concentration 1000.0 nM; remark: listed apart in the source
[6] = test system: Tyrosine-protein kinase ABL1 (Homo sapiens), P00519 [M351T]; settings: Compound concentration 1000.0 nM
[7] = target: Activin receptor type-1B (Homo sapiens) (UniProt P36896); settings: Compound concentration 1000.0 nM
[8] = target: ALK tyrosine kinase receptor (Homo sapiens) (UniProt Q9UM73); settings: Compound concentration 1000.0 nM
[9] = test system: ALK tyrosine kinase receptor (Homo sapiens), Q9UM73 [L1196M]; settings: Compound concentration 1000.0 nM
[10] = target: NUAK family SNF1-like kinase 1 (Homo sapiens) (UniProt O60285); settings: Compound concentration 1000.0 nM
[11] = target: Aurora kinase C (Homo sapiens) (UniProt Q9UQB9); settings: Compound concentration 1000.0 nM
[12] = target: Cyclin-dependent kinase-like 3 (Homo sapiens) (UniProt Q8IVW4); settings: Compound concentration 1000.0 nM
[13] = target: Dual specificity tyrosine-phosphorylation-regulated kinase 1B (Homo sapiens) (UniProt Q9Y463); settings: Compound concentration 1000.0 nM
[14] = test system: Epidermal growth factor receptor (Homo sapiens), P00533 [UNDEFINED MUTATION]; settings: Compound concentration 1000.0 nM
[15] = test system: Epidermal growth factor receptor (Homo sapiens), P00533 [T790M]; settings: Compound concentration 1000.0 nM
[16] = target: Ephrin type-A receptor 1 (Homo sapiens) (UniProt P21709); settings: Compound concentration 1000.0 nM
[17] = target: Ephrin type-A receptor 2 (Homo sapiens) (UniProt P29317); settings: Compound concentration 1000.0 nM
[18] = target: Serine/threonine-protein kinase/endoribonuclease IRE1 (Homo sapiens) (UniProt O75460); settings: Compound concentration 1000.0 nM
[19] = test system: Receptor-type tyrosine-protein kinase FLT3 (Homo sapiens), P36888 [D835V]; settings: Compound concentration 1000.0 nM
[20] = test system: Receptor-type tyrosine-protein kinase FLT3 (Homo sapiens), P36888 [N841I]; settings: Compound concentration 1000.0 nM
[21] = target: Serine/threonine-protein kinase ICK (Homo sapiens) (UniProt Q9UPZ9); settings: Compound concentration 1000.0 nM
[22] = target: Serine/threonine-protein kinase LATS1 (Homo sapiens) (UniProt O95835); settings: Compound concentration 1000.0 nM
[23] = target: Mitogen-activated protein kinase kinase kinase 15 (Homo sapiens) (UniProt Q6ZN16); settings: Compound concentration 1000.0 nM
[24] = target: Serine/threonine-protein kinase MARK2 (Homo sapiens) (UniProt Q7KZI7); settings: Compound concentration 1000.0 nM
[25] = target: MAP/microtubule affinity-regulating kinase 4 (Homo sapiens) (UniProt Q96L34); settings: Compound concentration 1000.0 nM
[26] = target: Microtubule-associated serine/threonine-protein kinase 1 (Homo sapiens) (UniProt Q9Y2H9); settings: Compound concentration 1000.0 nM
[27] = target: Dual specificity mitogen-activated protein kinase kinase 6 (Homo sapiens) (UniProt P52564); settings: Compound concentration 1000.0 nM
[28] = target: Tyrosine-protein kinase Mer (Homo sapiens) (UniProt Q12866); settings: Compound concentration 1000.0 nM
[29] = target: Myosin light chain kinase (Homo sapiens) (UniProt Q32MK0); settings: Compound concentration 1000.0 nM
[30] = target: Myosin light chain kinase family member 4 (Homo sapiens) (UniProt Q86YV6); settings: Compound concentration 1000.0 nM
[31] = target: Serine/threonine-protein kinase Nek3 (Homo sapiens) (UniProt P51956); settings: Compound concentration 1000.0 nM
[32] = target: Serine/threonine-protein kinase PAK 2 (Homo sapiens) (UniProt Q13177); settings: Compound concentration 1000.0 nM
[33] = target: Cyclin-dependent kinase 18 (Homo sapiens) (UniProt Q07002); settings: Compound concentration 1000.0 nM
[34] = target: Serine/threonine-protein kinase N1 (Homo sapiens) (UniProt Q16512); settings: Compound concentration 1000.0 nM
[35] = target: Serine/threonine-protein kinase D2 (Homo sapiens) (UniProt Q9BZL6); settings: Compound concentration 1000.0 nM
[36] = target: Serine/threonine-protein kinase PRP4 homolog (Homo sapiens) (UniProt Q13523); settings: Compound concentration 1000.0 nM
[37] = target: Rho-associated protein kinase 1 (Homo sapiens) (UniProt Q13464); settings: Compound concentration 1000.0 nM
[38] = target: SNF-related serine/threonine-protein kinase (Homo sapiens) (UniProt Q9NRH2); settings: Compound concentration 1000.0 nM
[39] = target: Serine/threonine-protein kinase 33 (Homo sapiens) (UniProt Q9BYT3); settings: Compound concentration 1000.0 nM
[40] = target: Tyrosine-protein kinase Tec (Homo sapiens) (UniProt P42680); settings: Compound concentration 1000.0 nM
[41] = target: Serine/threonine-protein kinase tousled-like 2 (Homo sapiens) (UniProt Q86UE8); settings: Compound concentration 1000.0 nM
[42] = target: Serine/threonine-protein kinase VRK2 (Homo sapiens) (UniProt Q86Y07); settings: Compound concentration 1000.0 nM
[43] = target: 5-hydroxytryptamine receptor 1D (Homo sapiens) (UniProt P28221); settings: Compound concentration 10.0 uM
[44] = target: 5-hydroxytryptamine receptor 6 (Homo sapiens) (UniProt P50406); settings: Compound concentration 10.0 uM
[45] = target: Alpha-2B adrenergic receptor (Homo sapiens) (UniProt P18089); settings: Compound concentration 10.0 uM

Chain of ALK tyrosine kinase receptor (Homo sapiens) (Q9UM73 19-1620 limits assumed): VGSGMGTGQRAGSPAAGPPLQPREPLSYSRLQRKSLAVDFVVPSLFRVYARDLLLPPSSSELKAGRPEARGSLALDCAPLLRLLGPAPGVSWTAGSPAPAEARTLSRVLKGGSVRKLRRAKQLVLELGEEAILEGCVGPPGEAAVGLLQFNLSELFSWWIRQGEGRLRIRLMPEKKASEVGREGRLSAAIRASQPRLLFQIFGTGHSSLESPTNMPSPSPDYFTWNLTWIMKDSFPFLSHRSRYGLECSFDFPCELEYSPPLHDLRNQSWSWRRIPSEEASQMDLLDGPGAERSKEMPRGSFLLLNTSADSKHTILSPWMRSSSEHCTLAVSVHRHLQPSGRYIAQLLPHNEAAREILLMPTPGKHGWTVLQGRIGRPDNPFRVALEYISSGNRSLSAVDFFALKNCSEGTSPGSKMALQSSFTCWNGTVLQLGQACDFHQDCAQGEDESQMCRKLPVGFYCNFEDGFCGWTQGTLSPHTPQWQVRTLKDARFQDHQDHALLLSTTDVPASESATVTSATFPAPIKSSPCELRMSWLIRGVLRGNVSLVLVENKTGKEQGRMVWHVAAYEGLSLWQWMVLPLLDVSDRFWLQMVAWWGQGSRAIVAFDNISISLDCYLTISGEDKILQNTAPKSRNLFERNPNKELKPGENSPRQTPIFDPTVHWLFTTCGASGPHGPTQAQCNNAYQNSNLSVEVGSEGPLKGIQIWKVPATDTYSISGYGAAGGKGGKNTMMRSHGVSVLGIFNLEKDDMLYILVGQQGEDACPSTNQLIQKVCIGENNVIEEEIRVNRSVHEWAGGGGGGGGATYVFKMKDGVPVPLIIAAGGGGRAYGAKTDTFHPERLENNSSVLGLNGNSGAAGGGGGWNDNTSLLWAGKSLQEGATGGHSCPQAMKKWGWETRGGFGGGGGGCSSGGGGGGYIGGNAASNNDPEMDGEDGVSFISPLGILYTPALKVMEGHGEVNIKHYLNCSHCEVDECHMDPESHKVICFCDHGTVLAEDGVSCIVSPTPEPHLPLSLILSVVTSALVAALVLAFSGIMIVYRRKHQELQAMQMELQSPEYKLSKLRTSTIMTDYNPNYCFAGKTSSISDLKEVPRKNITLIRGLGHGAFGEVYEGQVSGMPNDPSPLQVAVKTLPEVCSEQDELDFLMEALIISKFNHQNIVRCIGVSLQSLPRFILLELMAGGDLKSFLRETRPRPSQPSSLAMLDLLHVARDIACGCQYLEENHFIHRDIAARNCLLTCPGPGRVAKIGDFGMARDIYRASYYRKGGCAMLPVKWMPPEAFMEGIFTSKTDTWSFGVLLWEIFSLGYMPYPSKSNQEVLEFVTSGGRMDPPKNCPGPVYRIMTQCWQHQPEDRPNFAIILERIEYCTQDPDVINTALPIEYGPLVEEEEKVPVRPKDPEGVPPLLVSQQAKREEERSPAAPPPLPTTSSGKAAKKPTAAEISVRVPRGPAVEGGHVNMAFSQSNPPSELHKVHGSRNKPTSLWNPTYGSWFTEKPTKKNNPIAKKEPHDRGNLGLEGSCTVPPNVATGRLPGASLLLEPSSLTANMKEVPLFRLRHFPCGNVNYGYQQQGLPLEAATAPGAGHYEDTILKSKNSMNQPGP
Chain of Rho-associated protein kinase 1 (Homo sapiens) (Q13464 2-1354 limits assumed): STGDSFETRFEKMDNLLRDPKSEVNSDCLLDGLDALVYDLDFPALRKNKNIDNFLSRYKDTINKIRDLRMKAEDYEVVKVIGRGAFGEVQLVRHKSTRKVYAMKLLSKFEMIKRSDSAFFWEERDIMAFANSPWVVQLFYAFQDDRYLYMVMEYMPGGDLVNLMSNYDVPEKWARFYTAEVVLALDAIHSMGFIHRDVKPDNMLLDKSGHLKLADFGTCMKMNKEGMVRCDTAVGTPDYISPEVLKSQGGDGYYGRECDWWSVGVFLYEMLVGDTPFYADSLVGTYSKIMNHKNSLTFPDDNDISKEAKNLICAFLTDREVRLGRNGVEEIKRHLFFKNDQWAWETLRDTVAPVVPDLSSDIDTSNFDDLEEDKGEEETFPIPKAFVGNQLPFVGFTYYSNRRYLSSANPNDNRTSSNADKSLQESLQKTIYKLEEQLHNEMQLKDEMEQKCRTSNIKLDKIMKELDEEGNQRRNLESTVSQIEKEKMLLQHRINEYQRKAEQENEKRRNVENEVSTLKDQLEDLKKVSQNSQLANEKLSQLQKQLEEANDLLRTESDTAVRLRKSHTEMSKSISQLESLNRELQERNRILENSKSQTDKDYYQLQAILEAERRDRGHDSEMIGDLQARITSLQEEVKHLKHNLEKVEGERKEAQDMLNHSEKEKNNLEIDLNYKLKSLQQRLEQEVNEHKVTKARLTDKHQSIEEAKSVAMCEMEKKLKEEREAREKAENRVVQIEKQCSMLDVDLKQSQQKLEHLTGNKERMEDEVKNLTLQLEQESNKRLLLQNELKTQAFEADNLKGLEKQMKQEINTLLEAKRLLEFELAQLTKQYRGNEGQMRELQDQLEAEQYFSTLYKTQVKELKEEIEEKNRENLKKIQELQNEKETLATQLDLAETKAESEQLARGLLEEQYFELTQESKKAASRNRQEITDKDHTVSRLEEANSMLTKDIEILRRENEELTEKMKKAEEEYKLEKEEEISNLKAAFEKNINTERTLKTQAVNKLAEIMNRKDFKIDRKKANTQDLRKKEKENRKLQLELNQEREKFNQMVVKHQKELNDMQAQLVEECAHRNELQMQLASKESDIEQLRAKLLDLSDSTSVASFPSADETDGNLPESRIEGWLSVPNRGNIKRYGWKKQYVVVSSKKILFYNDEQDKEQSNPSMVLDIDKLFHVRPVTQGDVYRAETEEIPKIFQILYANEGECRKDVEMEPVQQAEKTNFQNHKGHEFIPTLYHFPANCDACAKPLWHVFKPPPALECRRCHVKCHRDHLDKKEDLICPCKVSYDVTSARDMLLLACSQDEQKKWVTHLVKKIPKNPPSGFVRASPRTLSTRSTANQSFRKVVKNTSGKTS
Chain of ALK tyrosine kinase receptor (Homo sapiens), Q9UM73 [L1196M] (Q9UM73 whole entry L1196M, looked up): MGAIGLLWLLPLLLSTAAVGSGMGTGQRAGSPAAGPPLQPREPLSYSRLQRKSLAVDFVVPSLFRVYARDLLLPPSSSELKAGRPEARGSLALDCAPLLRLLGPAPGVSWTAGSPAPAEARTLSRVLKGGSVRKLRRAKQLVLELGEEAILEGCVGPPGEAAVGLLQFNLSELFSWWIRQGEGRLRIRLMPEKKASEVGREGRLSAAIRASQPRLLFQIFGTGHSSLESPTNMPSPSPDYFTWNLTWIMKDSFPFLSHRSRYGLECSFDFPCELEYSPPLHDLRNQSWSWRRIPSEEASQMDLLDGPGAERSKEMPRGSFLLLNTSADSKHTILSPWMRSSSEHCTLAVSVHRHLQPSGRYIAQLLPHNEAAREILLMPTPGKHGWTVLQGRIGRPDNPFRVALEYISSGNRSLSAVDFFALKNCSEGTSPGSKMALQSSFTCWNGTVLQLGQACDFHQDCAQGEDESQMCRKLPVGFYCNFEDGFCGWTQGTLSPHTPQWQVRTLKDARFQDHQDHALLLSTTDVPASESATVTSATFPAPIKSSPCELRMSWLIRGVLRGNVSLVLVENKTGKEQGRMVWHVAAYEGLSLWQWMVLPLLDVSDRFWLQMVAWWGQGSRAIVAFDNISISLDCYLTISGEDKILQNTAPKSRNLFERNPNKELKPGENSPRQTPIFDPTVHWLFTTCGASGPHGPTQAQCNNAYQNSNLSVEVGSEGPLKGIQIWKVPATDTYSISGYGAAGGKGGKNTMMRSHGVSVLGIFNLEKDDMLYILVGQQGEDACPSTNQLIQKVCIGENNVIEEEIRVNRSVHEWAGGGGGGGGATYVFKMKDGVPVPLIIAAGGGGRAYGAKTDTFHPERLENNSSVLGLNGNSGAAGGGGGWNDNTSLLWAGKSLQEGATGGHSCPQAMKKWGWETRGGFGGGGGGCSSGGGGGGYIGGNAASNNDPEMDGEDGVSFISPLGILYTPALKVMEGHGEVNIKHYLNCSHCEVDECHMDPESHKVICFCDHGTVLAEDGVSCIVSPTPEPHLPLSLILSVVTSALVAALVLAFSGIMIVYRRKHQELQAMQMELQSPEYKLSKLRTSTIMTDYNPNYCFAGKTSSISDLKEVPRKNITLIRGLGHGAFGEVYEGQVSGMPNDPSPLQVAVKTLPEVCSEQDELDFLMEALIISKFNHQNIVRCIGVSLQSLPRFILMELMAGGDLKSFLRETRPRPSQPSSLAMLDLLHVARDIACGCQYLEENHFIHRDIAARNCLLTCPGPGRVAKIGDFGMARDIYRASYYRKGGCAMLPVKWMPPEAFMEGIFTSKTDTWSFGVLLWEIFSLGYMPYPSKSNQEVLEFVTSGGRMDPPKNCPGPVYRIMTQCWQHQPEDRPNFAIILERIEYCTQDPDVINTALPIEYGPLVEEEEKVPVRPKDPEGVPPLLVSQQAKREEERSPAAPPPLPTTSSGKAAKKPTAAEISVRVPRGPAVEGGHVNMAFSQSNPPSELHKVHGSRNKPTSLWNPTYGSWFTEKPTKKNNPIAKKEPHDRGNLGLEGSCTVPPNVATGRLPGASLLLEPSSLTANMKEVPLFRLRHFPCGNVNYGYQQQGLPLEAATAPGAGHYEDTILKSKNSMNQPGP
Chain of Activin receptor type-1B (Homo sapiens) (P36896 whole entry): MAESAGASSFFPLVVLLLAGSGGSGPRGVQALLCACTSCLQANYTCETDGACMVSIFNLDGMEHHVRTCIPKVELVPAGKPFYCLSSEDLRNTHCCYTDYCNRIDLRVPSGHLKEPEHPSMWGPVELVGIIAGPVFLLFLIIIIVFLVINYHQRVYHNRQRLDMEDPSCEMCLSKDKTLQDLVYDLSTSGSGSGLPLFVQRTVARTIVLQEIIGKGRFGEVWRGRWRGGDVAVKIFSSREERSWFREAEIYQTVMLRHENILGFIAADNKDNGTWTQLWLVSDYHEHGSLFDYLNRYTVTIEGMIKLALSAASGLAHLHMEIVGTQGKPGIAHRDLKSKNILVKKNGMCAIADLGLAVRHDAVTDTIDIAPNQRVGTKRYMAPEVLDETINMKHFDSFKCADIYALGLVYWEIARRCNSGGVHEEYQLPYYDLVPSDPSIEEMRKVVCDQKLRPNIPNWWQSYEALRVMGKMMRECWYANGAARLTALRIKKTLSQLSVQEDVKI

In the case of NS(=O)(=O)c1cc(NC(=O)Cc2ccccc2)ccc1Oc1cccc(Cl)c1 [BAY-1797], the residual activity [1] was 69%, the residual activity [2] was 57% and the residual activity [3] was 72%. It also gave a residual activity [4] of 97%, a residual activity [5] of 73% and a residual activity [6] of 78%. For the same molecule, the residual activity [7] was 98%, the residual activity [8] was 100% and the residual activity [9] was 62%. For the same molecule, the residual activity [10] was 100%, the residual activity [11] was 100% and the residual activity [12] was 95%. It also gave a residual activity [13] of 100%, a residual activity [14] of 76% and a residual activity [15] of 100%. It also gave a residual activity [16] of 100%, a residual activity [17] of 91% and a residual activity [18] of 73%. The residual activity [19] was 86%, the residual activity [20] was 55% and the residual activity [21] was 100%. The residual activity [22] was 79%, the residual activity [23] was 100% and the residual activity [24] was 59%. It also gave a residual activity [25] of 100%, a residual activity [26] of 85% and a residual activity [27] of 99%. It also gave a residual activity [28] of 82%, a residual activity [29] of 89% and a residual activity [30] of 93%. It also gave a residual activity [31] of 100%, a residual activity [32] of 91% and a residual activity [33] of 100%. For the same molecule, the residual activity [34] was 100%, the residual activity [35] was 85% and the residual activity [36] was 97%. For the same molecule, the residual activity [37] was 88%, the residual activity [38] was 100% and the residual activity [39] was 100%. The residual activity [40] was 96%, the residual activity [41] was 100% and the residual activity [42] was 100%. For the same molecule, the inhibition [43] was 1.74%, the inhibition [44] was 17.2% and the inhibition [45] was 56.6%.
Work on NS(=O)(=O)c1cc(NC(=O)C2(c3ccccc3Cl)CC2)ccc1Oc1cccc(Cl)c1 [BAY-207] yielded a residual activity [1] of 72%, a residual activity [2] of 88% and a residual activity [3] of 71%. For the same molecule, the residual activity [4] was 81%, the residual activity [5] was 93% and the residual activity [6] was 70%. It also gave a residual activity [7] of 89%, a residual activity [8] of 85% and a residual activity [9] of 85%. For the same molecule, the residual activity [10] was 95%, the residual activity [11] was 63% and the residual activity [12] was 77%. The residual activity [13] was 86%, the residual activity [14] was 85% and the residual activity [15] was 100%. For the same molecule, the residual activity [16] was 100%, the residual activity [17] was 80% and the residual activity [18] was 61%. The residual activity [19] was 100%, the residual activity [20] was 32% and the residual activity [21] was 100%. The residual activity [22] was 69%, the residual activity [23] was 86% and the residual activity [24] was 100%. The residual activity [25] was 82%, the residual activity [26] was 100% and the residual activity [27] was 96%. For the same molecule, the residual activity [28] was 70%, the residual activity [29] was 89% and the residual activity [30] was 94%. The residual activity [31] was 95%, the residual activity [32] was 100% and the residual activity [33] was 69%. It also gave a residual activity [34] of 100%, a residual activity [35] of 87% and a residual activity [36] of 68%. The residual activity [37] was 100%, the residual activity [38] was 100% and the residual activity [39] was 100%. For the same molecule, the residual activity [40] was 81%, the residual activity [41] was 100% and the residual activity [42] was 100%. It also gave an inhibition [43] of 6.75%, an inhibition [44] of -4.73% and an inhibition [45] of 43.4%.
